Literature values in US20080166695A1, “Solution for the storage and perfusion of organs awaiting transplantation” (Sigma-Tau Industrie Farmaceutiche Riunite S.p.A., priority 2001, published 2008).

System: isolated rabbit heart
Conditions: isolated rabbit heart perfused with whole blood with L-carnitine added

C[N+](C)(C)C[C@H](O)CC(=O)[O-] [L-carnitine]
recovery of cardiac functions: protective effect
